Measurements reported in patent US6743822B2, “Reduction of hair growth” (The Gillette Company, priority 2001, dated 2004).
Several values for one entry are separate records, joined by “and”; a condition that tells them apart may be missing. Identical values can stand only once. Entries after “also recorded” stand apart in the source; their conditions may differ.

Key:
[1] = system: Human hair follicles in culture (facial skin); experiment: Human Hair Follicle Growth assay; assay type: cell-based; conditions: 0.5 mM, seven days in culture
Procedure: Hair follicles were isolated from human facial (obtained from patients who underwent face lift surgery) skin samples using fine forceps under a dissecting microscope and grown in tissue culture Williams E medium—supplemented with insulin (10 μg/ml), glutamine (2 mM), hydrocortisone ([…]) and antibiotics/antimycotics (pen/strep). Hair lengths were determined on day 0, and day 7. Human hair follicles in culture were treated with 0.5 mM concentration of L-DFMO, D-DFMO, D,L-DFMO. Controls were cultured in Williams E tissue culture medium without DFMO. The increase in hair fiber length was determined over seven days. […] Only L-DFMO produced statistically significant reduction in hair growth (p=0.003) in this time period. […] The “P” values, as determined by paired test analysis, were 0.97, 0.78 and 0.003 for the D,L-DFMO, D-DFMO and L-DFMO, respectively.

[2] = system: Hamster flank organ hair follicles; experiment: Golden Syrian Hamster hair follicle spatial mass assay (image analysis); assay type: in vivo
Procedure: (§1) Hamster flank organs were treated topically with D,L-DFMO or L-DFMO with the contra-lateral side treated with the carrier vehicle without DFMO. Animals were sacrificed at the indicated time-point (4 days or 7 days) and back skins containing the flank organ were removed for analysis. Glycerin was applied to the underside of the dorsal skin of the hamster flank organ regions. Flank organ hair follicle mass and density were assessed, by imaging the region with a digital camera, and analysis of the images was performed with Ultimage/Pro (version 2.5) software by […]. This technique permitted the quantification of hair follicle mass based on particle area and number, and hair follicle density based on particle number.

[3] = system: flank organs (hair growth) of male intact Golden Syrian hamsters; experiment: Golden Syrian Hamster assay (flank organ hair mass); assay type: in vivo; conditions: dose 0.3%, topical; for Hair Mass in mg (drug treated): vehicle of Example 2, thirteen applications; for Percent inhibition (hair mass): vehicle of Example 2, versus vehicle treated flank organ
From the text: Male intact Golden Syrian hamsters are considered acceptable models for human beard hair growth in that they display oval shaped flank organs, one on each side, each about 8 mm. in major diameter. These organs produce fine light colored hair typical of the animal pelage found on the body. In response to androgens the flank organs produce dark coarse hair similar to male human beard hair. To evaluate the effectiveness of a composition, the flank organs of each of a group of hamsters are depilated by applying a thioglycolate-based chemical depilatory (Surgex) and/or shaved. To one organ of each animal 10 μl of vehicle alone once a day is applied, while to the other organ of each animal an equal amount of vehicle containing substantially optically pure L-DFMO, substantially optically pure D-DFMO, racemic DFMO, or non-racemic DFMO including a preponderance of L-DFMO. After thirteen applications (one application per day for five days a week), the flank organs are shaved and the amount of recovered hair (hair mass) from each is weighed. For certain experiments, where indicated, the treatment period was for less than 13 applications. The reduced treatment period allowed for determination of onset in activity. Percent-reduction of hair growth is calculated by subtracting the hair mass (mg) value of the test compound treated side from the hair mass value of the vehicle treated side; the delta value obtained is then divided by the hair mass value of the vehicle treated side, and the resultant number is multiplied by 100. Visual evaluations comparing hair regrowth between the drug treated and the vehicle control site were made generally on day-8, day-15 and on day-19. These observations provide an identification of onset in activity (and thus efficacy). The above-described assay will be referred to herein as the “Golden Syrian Hamster” assay The efficacy of DFMO-containing compositions containing greater than 90% L-DFMO (“L-DFMO” for purposes of the below assays), racemic DFMO (“D,L-DFMO”), and greater than 90% D-DFMO (or “D-DFMO” for purposes of the below assays) was determined using the Golden Syrian Hamster assay. The L-DFMO produced a substantially greater hair mass reduction than the D-DFMO or D,L-DFMO (Table 1). The average inhibition at the 0.3% dose for the L-, D- and D,L-DFMO was 43±6%, 19±11% and 25±9%, respectively.

[4] = system: Hamster flank organ hair follicles; experiment: Golden Syrian Hamster hair follicle density assay (image analysis); assay type: in vivo; conditions: 7 days, dose 0.5%, vehicle of Example 2
Procedure: as §1

[5] = system: flank organs (hair growth) of Golden Syrian hamsters; experiment: Twice a Week Golden Syrian Hamster assay; assay type: in vivo; conditions: dose 1%, 2×/wk, vehicle of Example 2
From the text: Male intact Golden Syrian hamsters are considered acceptable models for human beard hair growth in that they display oval shaped flank organs, one on each side, each about 8 mm. in major diameter. These organs produce fine light colored hair typical of the animal pelage found on the body. In response to androgens the flank organs produce dark coarse hair similar to male human beard hair. To evaluate the effectiveness of a composition, the flank organs of each of a group of hamsters are depilated by applying a thioglycolate-based chemical depilatory (Surgex) and/or shaved. To one organ of each animal 10 μl of vehicle alone once a day is applied, while to the other organ of each animal an equal amount of vehicle containing substantially optically pure L-DFMO, substantially optically pure D-DFMO, racemic DFMO, or non-racemic DFMO including a preponderance of L-DFMO. After thirteen applications (one application per day for five days a week), the flank organs are shaved and the amount of recovered hair (hair mass) from each is weighed. For certain experiments, where indicated, the treatment period was for less than 13 applications. The reduced treatment period allowed for determination of onset in activity. Percent-reduction of hair growth is calculated by subtracting the hair mass (mg) value of the test compound treated side from the hair mass value of the vehicle treated side; the delta value obtained is then divided by the hair mass value of the vehicle treated side, and the resultant number is multiplied by 100. Visual evaluations comparing hair regrowth between the drug treated and the vehicle control site were made generally on day-8, day-15 and on day-19. These observations provide an identification of onset in activity (and thus efficacy). The Golden Syrian Hamster assay was modified so that the animals received a reduced treatment frequency with DFMO, namely twice per week instead of five times a week.

[6] = system: flank organ hair regrowth of Golden Syrian hamsters; experiment: Golden Syrian Hamster visual efficacy assay; assay type: in vivo; conditions: dose 2%; for Number of animals demonstrating maximal efficacy (observation score of +3) after full three weeks of treatment / Percent of animals demonstrating maximal efficacy (observation score of +3) after full three weeks of treatment: vehicle of Example 2; for Number of animals demonstrating efficacy (score of +1 or greater) after two weeks of treatment / Percent of animals demonstrating efficacy (score of +1 or greater) after two weeks of treatment: vehicle of Example 2, blinded visual score
From the text: Male intact Golden Syrian hamsters are considered acceptable models for human beard hair growth in that they display oval shaped flank organs, one on each side, each about 8 mm. in major diameter. These organs produce fine light colored hair typical of the animal pelage found on the body. In response to androgens the flank organs produce dark coarse hair similar to male human beard hair. To evaluate the effectiveness of a composition, the flank organs of each of a group of hamsters are depilated by applying a thioglycolate-based chemical depilatory (Surgex) and/or shaved. To one organ of each animal 10 μl of vehicle alone once a day is applied, while to the other organ of each animal an equal amount of vehicle containing substantially optically pure L-DFMO, substantially optically pure D-DFMO, racemic DFMO, or non-racemic DFMO including a preponderance of L-DFMO. After thirteen applications (one application per day for five days a week), the flank organs are shaved and the amount of recovered hair (hair mass) from each is weighed. For certain experiments, where indicated, the treatment period was for less than 13 applications. The reduced treatment period allowed for determination of onset in activity. Percent-reduction of hair growth is calculated by subtracting the hair mass (mg) value of the test compound treated side from the hair mass value of the vehicle treated side; the delta value obtained is then divided by the hair mass value of the vehicle treated side, and the resultant number is multiplied by 100. Visual evaluations comparing hair regrowth between the drug treated and the vehicle control site were made generally on day-8, day-15 and on day-19. These observations provide an identification of onset in activity (and thus efficacy). The assay in a ‘blinded’ study included visual observations comparing the regrowth of hair on the DFMO treated flank organ with the vehicle treated flank organ during the course of treatment. Scores were assigned from 0 to +3. 0, no difference; +1, DFMO treated shorter than vehicle treated indicating efficacy; +2, DFMO treated much shorter than vehicle treated; +3, DFMO treated nearly bald indicating maximal efficacy. […] This assay will be referred to herein as the “Golden Syrian Hamster visual efficacy” assay.

[7] = 4 Days, dose 1%, vehicle of Example 2
[8] = 7 Days, dose 0.5%, vehicle of Example 2 (Table 5)
[9] = 7 days, dose 0.5%, vehicle of Example 2

NCCC[C@](N)(C(=O)O)C(F)F [L-DFMO, L-α-difluoromethylornithine]
hair follicle growth inhibition (increase in hair fiber length, as compared to controls) [1]: 36±12% | hair follicle mass reduction, fold greater than by D,L-DFMO ([2]; 0.5% dose, 7 days (Table 5)): ~4 fold | increase in efficacy (hair follicle spatial mass), fold versus D,L-DFMO ([2]; 0.5% dose, 7 days, another assay (Table 6)): ~4 fold | hair follicle mass reduction, fold greater than by D,L-DFMO ([2]; 1% dose, 4 days): 2 fold | Hair follicle mass as determined by image analysis: particle area (×10^6), Treated [2, 7]: 4.23 ± 1.1 ×10^6 | Inhibition % of hair follicle mass [2, 7]: 43% and 43 ± 9% | Inhibition % of hair follicle mass [2, 8]: 58% and 58 ± 11% | % Inhibition of Hair Follicle Mass ([2]; 7 days, dose 0.5%, another assay (Table 6)): 41% and 41 ± 15% | Hair follicle mass as determined by image analysis: particle area (×10^6), Treated [2, 9]: 2.22 ± .94 ×10^6 | Hair Mass in mg (drug treated) [3]: 1.06 ± 0.14 mg | Percent inhibition (hair mass) [3]: 43±6% | % Inhibition of Hair Follicle Density [4]: 45% and 45 ± 5% | Hair Mass in mg (drug treated) [5]: 1.83 ± 0.38 mg | Number of animals demonstrating maximal efficacy (observation score of +3) after full three weeks of treatment [6]: 5 out of 8 | Number of animals demonstrating efficacy (score of +1 or greater) after two weeks of treatment [6]: 7 out of 8

NCCC[C@](N)(C(=O)O)C(F)F (racemic) [D,L-DFMO, α-Difluoromethylornithine]
inhibition at 500 µM ([1]; Homo sapiens, 168 h, read-out: hair follicle growth inhibition (increase in hair fiber length, as compared to controls)): 1 ± 12% | Hair follicle mass as determined by image analysis: particle area (×10^6), Treated [2, 7]: 4.89 ± 0.9 ×10^6 | Inhibition % of hair follicle mass [2, 7]: 20% and 20 ± 9% | Inhibition % of hair follicle mass [2, 8]: 15% and 15 ± 13% | Hair follicle mass as determined by image analysis: particle area (×10^6), Treated [2, 9]: 2.71 ± .71 ×10^6 | Hair Mass in mg (drug treated) [3]: 1.53 ± 0.19 mg | Percent inhibition (hair mass) [3]: 25±9% | % Inhibition of Hair Follicle Density [4]: no effect; also recorded: No Inhibition | Hair Mass in mg (drug treated) [5]: 1.74 ± 0.18 mg | Number of animals demonstrating maximal efficacy (observation score of +3) after full three weeks of treatment [6]: 1 out of 8 | Percent of animals demonstrating maximal efficacy (observation score of +3) after full three weeks of treatment [6]: 13% | Number of animals demonstrating efficacy (score of +1 or greater) after two weeks of treatment [6]: 3 out of 8 | Percent of animals demonstrating efficacy (score of +1 or greater) after two weeks of treatment [6]: 38% | Percent of animals demonstrating efficacy (score of +1 or greater) after two weeks of treatment ([6]; listed as D, L-DFMO): 38% | Percent of animals demonstrating maximal efficacy (observation score of +3) after full three weeks of treatment ([6]; listed as racemic DFMO): 13%

NCCC[C@@](N)(C(=O)O)C(F)F [D-DFMO]
hair follicle growth inhibition (increase in hair fiber length, as compared to controls) [1]: 4±13% | Hair Mass in mg (drug treated) [3]: 1.39 ± 0.12 mg | Percent inhibition (hair mass) [3]: 19±11% | Hair Mass in mg (drug treated) [5]: 1.80 ± 0.18 mg | Number of animals demonstrating maximal efficacy (observation score of +3) after full three weeks of treatment [6]: 0 out of 8 | Number of animals demonstrating efficacy (score of +1 or greater) after two weeks of treatment [6]: 2 out of 8 | Percent of animals demonstrating efficacy (score of +1 or greater) after two weeks of treatment [6]: 25%
